Data from US20070185431A1, “Galvanic Current Skin Treatment” (priority 2006, published 2007).
“Also recorded” adds a separate entry of the source. Values belong to the molecule of their own block, whether it stands above or below them.

How the values were obtained:
[1] = cited from earlier work
[2] = Franz cell skin penetration of the other compounds with and without current (Phoresor)
Description: Thus, for a 1% theobromine solution, a Tris-glycine buffer at pH 12 was chosen. […] By putting theobromine into 0.1N NaOH at pH 12, this compound is ionized to a negative charge. No information was readily available regarding the pKa of Ergothioneine (Thiotaine) but based on its structure, it would appear to have a relatively low pKa and thus be negatively charged at pH 8.0.
For experiments, the electrodes from the Phoresor were applied to the Franz unit with the negative electrode in contact with the skin's surface and in contact with the compound solution being applied. Each compound was tested on 5 skins for skin penetration without current and 5 skins for skin penetration with current.
Note that the time=0 for the bar graphs discussed below represents the time at which the galvanic current was terminated.
A 60 microliter solution of aminophylline in PBS (pH 7.0) gelled slightly with 0.5% HEC was applied to human breast skin mounted in Franz cell chambers. A 0.4 mAmp current was applied for either 6.25 minutes (for a 2.5 mAmp×time dose) or 12.5 minutes to produce a 5 mAmp×time dose. At 6 hours samples were withdrawn for analysis and a second dose applied only to the skin receiving a 2.5 mAmp×time pulse at T=0. Samples were withdrawn for analysis at T=12 hours and again at T=24 hours.
Thus, its rate of dissociation is not going to be high in an aqueous solvent. in order to shift the equilibrium to the anion form of theobromine we prepared a 1% solution in Tris-glycine buffer adjusted to pH 12 with IN NaOH. Franz studies were then carried out using a 2.5 mAmp×time pulse.

[3] = Skin penetration of caffeine in modified Franz cells with galvanic current application device; type: in vitro ADME, human
Description: According to one embodiment, another method and apparatus relates to a modified Franz cell instrument and method of testing iontophoresis across a cellular membrane and the effects of an electrical current on the membrane after the electrical current has been removed. […] In this embodiment, a electrical current application device 18 is operably coupled to the Franz cell via a copper wire that connects the two electrodes of the device 18 to the Franz cell. In this embodiment, the negative electrode 16 contacts the surface of the cellular membrane via a copper wafer electrode while the positive electrode 14 is placed in the lower Franz fluid reservoir 12 to complete the circuit. Alternatively, any configuration that allows for application of an electrical current to the cellular membrane placed in the Franz cell is contemplated. According to one embodiment, the apparatus as set forth in FIG. 2 can be used to test the effects of applying electrical current to a cellular membrane.
To perform this examination, three modified Franz cells—each similar to the apparatus depicted in FIG. 2—were placed in series. […] As is understood in the art, 1 milliamp equals 1,000 microamps.
To determine the effectiveness of the current application device in enhancing the penetration of caffeine through human skin, a 1% caffeine solution was prepared in saline solution at a pH of 7.2 and an infinite dose (500 micro liters) applied to the surface of human skin mounted onto Franz cell units. One set of skin samples was left untreated to serve as the control group for passive skin penetration of caffeine. A second set was treated with one 3 minute cycle of the Galvanic unit delivering 120 microamps per skin. The standard convention for expressing the current “dose” the skin receives is Current×Time. Thus, the skin in this group received 360 microamp-minutes of current (120 microamps×3 minutes). A third group of skins were treated with 3 cycles of current (1080 microamp-minutes [shown as 1.1 mA]), and the fourth group received a dose of 4.32 mAmp-minutes (12 cycles at 3 minutes/cycle delivering 120 microamps).
Samples were collected at 6, 12 and 24 hours and the amount of caffeine present in the receptor fluid determined by HPLC.

[4] = Skin penetration of caffeine in Franz cells with iontophoretic instrument, pre-selected current dose; type: in vitro ADME, human
Method: For the first studies, Franz cells were dosed once with either: 1) no current (control), 2) 2 mAmp-minutes, 3) 5 mAmp-minutes, or 4)10 mAmp-minutes. Samples of the Franz receptor fluid were analyzed at 6, 12 and 24 hours after the current dose.
Because a consumer might use this product morning and evening, we separated the dose treatments by 10 hours. The experimental protocol involved applying a saline solution of 1% caffeine (pH 7.2) to human skins mounted in Franz cells. The groups were: 1) control-no dosing, 2) a dose of 2.5 mAmp-minute (0.375 mAmps for 6.67 minutes) repeated at 10 hours, and 3) a single 5 mAmp-minute. All groups contained 5 replicates. For these studies, the caffeine was only applied to the skin during the dosing phase. When a second current application was applied to the 2.5 mAmp-minute group at 10 hours, not only was the caffeine solution added to these skin samples, but it was also placed on the 5 mAmp-minute skins even though these were not treated again with current. This controlled for any skin penetration simply due to the presence of the caffeine solution on the skin. After dosing was completed any remaining caffeine solution was removed from the skin.
Because of the long duration of these studies, dosing was usually initiated at 7:00 am and 6 hours later the first samples were collected for analysis. At T=10 hours (5 pm) a second sample was collected and the 2.5 mAmp-minute group dosed a second time. At T=16 hours (11:00 pm) another sample was collected from the lower reservoir, and at T=24 the final samples were collected.
For this study, the caffeine solution was not removed from skins immediately after dosing but left on the skin for the duration of the experiment.
We conducted dose-response studies to begin to answer this question. For these studies, skins were dosed only once with either 0.6, 1.3, 2.5 or 5 mAmp-minutes with the current held constant at 375 uamps, the maximum output of the Galvanic unit. To each skin 400 microliters of a 1% caffeine in saline solution was applied. In order to minimize evaporation during the study, the caffeine solution was gelled slightly with hydroxyethylcellulose. Six hours after dosing, samples from the lower receptor fluid were collected and analyzed for caffeine.

[5] = cited from earlier work; remark: listed apart in the source

Compound: NC(=O)NCCC[C@H](N)C(=O)O [Citrulline]
pKa [1]: 9.4

Compound: C[N+](C)(C)[C@@H](Cc1c[nH]c(=S)[nH]1)C(=O)[O-] [Thiotaine, Ergothioneine]
skin penetration to lower chamber reservoir without current ([2]; no current, 24 hours): no compound had penetrated the skin | relative skin permeability among the compounds studied ([2]; simple buffer systems): least permeable | levels in the lower reservoir with current ([2]; single dose of 2.5 mAmp×time, 12 and 24 hours): measurable Thiotaine levels in the lower reservoir

Compound: Cn1c(=O)c2[nH]cnc2n(C)c1=O [aminophylline]
increase in skin flux [2]: only a modest increase in skin flux | skin penetration enhancement, FIG. 9A [2]: produced enhanced skin penetration | skin penetration without current [2]: relatively high skin penetration | enhancement in skin penetration over control values, extrapolated ([2]; human, 1 %): 23% | enhancement in skin penetration, extrapolated ([2]; human, 1 %): 9% | increase in skin penetration ([2]; human, 24 h, 1 %): approximately 1.7 fold | skin penetration: two treatments of 2.5 mAmp×time versus single 5 mAmp×time pulse ([2]; human, 24 h, 1 %, pH 7): did not equal the skin penetration seen with a single 5 amp×time pulse | pKa [1]: 5.0

Compound: Cn1c(=O)c2c(ncn2C)n(C)c1=O [caffeine]
penetration enhancement of caffeine through the skin ([3]; 1 cycle (360 microamp-minutes)): ineffective in causing any detectable penetration enhancement | penetration enhancement of caffeine compared to control ([3]; 3 cycles (1080 microamp-minutes), 24 hours): some marginal enhancement of penetration; also recorded: some small enhancement in skin penetration | penetration enhancement of caffeine through human skin ([3]; 6 cycles (2.2 mAmp-minutes), 24 hours): did enhance delivery of caffeine | amount of caffeine that had penetrated skin relative to control group ([3]; 12 cycles (4.32 mAmp-minutes), 24 hours, 1% caffeine in saline pH 7.2): 6 times | time at which increase in skin penetration was detectable ([3]; 12 cycles (4.32 mAmps-min)): ≤ 6 h | skin penetration: two 2.5 mAmp-minute doses versus one dose [4]: significantly more skin penetration of caffeine than one dose | increase in the penetration of caffeine ([4]; 2 mAmp-minute dose, 6 hours after treatment): 1.5 fold | time post-dosing at which penetration enhancement was detectable ([4]; 2.5 and 5 mAmp-minute groups, caffeine removed after dosing): ≤ 6 h | increase in the amount of caffeine penetrating the skin ([4]; 5 mAmp-minute dose, 6 hours): 3 fold | amount of caffeine present in the receptor as fraction of applied dose ([4]; 5 mAmp-minute dose, 24 hours): 4 % of applied dose | time after dosing at which enhanced penetration can be detected ([4]; 5 mAmp-minute dose, caffeine solution left on skin): ≤ 3 h | increase in the amount of caffeine penetrating the skin ([4]; 10 mAmp-minute dose, 6 hours): 4 fold | amount of caffeine penetrated: 2.5 mAmp-minute dosed twice versus 5 mAmp-minute dosed once ([4]; 24 hours): no significant difference; also recorded: as much caffeine penetration as a single 5 mAmp-minute dose | effect of a second 5 mAmp-minute dose versus a single 5 mAmp-minute dose ([4]; 24 hours, caffeine left on skin): no additional accumulation of caffeine; also recorded: does not appear to significantly enhance caffeine skin penetration | caffeine in the receptor without current ([4]; control skins, no current, 3 hours): no presence of caffeine in the receptor | time after dosing at which skin penetration enhancement can be detected ([4]; single 2.5 mAmp-minute dose): ≤ 3 h | skin penetration enhancement ([4]; single dose of 0.6 mAmp-minutes at 375 uamps, 6 hours, gelled 1% caffeine): will enhance skin penetration | current level above which maximal skin penetration occurs (sigmoidal fit) ([4]; single dose, 6 hours): 3-5 mAmp-minutes | penetration enhancement of single 2.5 mAmp-minute dose relative to single 5 mAmp-minute dose ([4]; single doses): about 50%

skin penetration enhancement [2]: enhanced skin penetration | time after application at which compound is detectable in the lower reservoir fluid ([2]; human, 1 %): ≤ 2 h | time at which enhanced effect of current is detectable ([2]; human, 1 %): about 4 hour | amount of compound in the receptor fluid ([2]; human, 24 h, 1 %): over 1000 micrograms
Compound: CCOC(=O)c1cccnc1 [ethyl nicotinate]

skin penetration from the solvent used ([2]; pH 12): relatively poorly
Compound: Cn1cnc2c1c(=O)[nH]c(=O)n2C [theobromine]
solubility [5]: virtually insoluble in any solvent except dilute alkali; also recorded: essentially insoluble in any solvent other than alkali | pKa [1]: 9.9
